Data taken from PubChem BioAssay (NCI).
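Five concentrations, 48 hours, 96-well plates. At the TGI there is no net growth.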

Tests used:
Test in all cases: NCI anticancer screen, dose series, 48 h
OVCAR-5 ovarian = test system: OVCAR-5 ovarian
HCT-116 colon = test system: HCT-116 colon
HS 578T breast = test system: HS 578T breast
SK-OV-3 ovarian = test system: SK-OV-3 ovarian
BT-549 breast = test system: BT-549 breast
SNB-75 CNS = test system: SNB-75 CNS
SF-268 CNS = test system: SF-268 CNS
COLO 205 colon = test system: COLO 205 colon
K-562 leukemia = test system: K-562 leukemia
M14 melanoma = test system: M14 melanoma
MDA-MB-435 = test system: MDA-MB-435
SK-MEL-2 melanoma = test system: SK-MEL-2 melanoma
PC-3 prostate = test system: PC-3 prostate
NCI-H226 lung = test system: NCI-H226 lung
HCT-15 colon = test system: HCT-15 colon
SNB-19 CNS = test system: SNB-19 CNS
HOP-62 NSCLC = test system: HOP-62 NSCLC
OVCAR-4 ovarian = test system: OVCAR-4 ovarian
NCI-H460 lung = test system: NCI-H460 lung
MOLT-4 leukemia = test system: MOLT-4 leukemia
SF-295 CNS = test system: SF-295 CNS
SN12C renal = test system: SN12C renal
RPMI-8226 leukemia = test system: RPMI-8226 leukemia
MCF7 breast = test system: MCF7 breast
CAKI-1 renal = test system: CAKI-1 renal
KM12 colon = test system: KM12 colon
A549 NSCLC = test system: A549 NSCLC
786-0 renal = test system: 786-0 renal
CCRF-CEM leukemia = test system: CCRF-CEM leukemia
MDA-N = test system: MDA-N
MDA-MB-231 breast = test system: MDA-MB-231 breast
U251 CNS = test system: U251 CNS
T-47D breast = test system: T-47D breast
SW-620 colon = test system: SW-620 colon
SF-539 CNS = test system: SF-539 CNS
UO-31 renal = test system: UO-31 renal
NCI-H23 lung = test system: NCI-H23 lung
OVCAR-3 ovarian = test system: OVCAR-3 ovarian
NCI/ADR-RES ovarian = test system: NCI/ADR-RES ovarian
EKVX NSCLC = test system: EKVX NSCLC
UACC-257 melanoma = test system: UACC-257 melanoma
RXF 393 renal = test system: RXF 393 renal
SK-MEL-28 melanoma = test system: SK-MEL-28 melanoma
HCC-2998 colon = test system: HCC-2998 colon
A498 renal = test system: A498 renal
HT29 colon = test system: HT29 colon
MALME-3M melanoma = test system: MALME-3M melanoma
OVCAR-8 ovarian = test system: OVCAR-8 ovarian
ACHN renal = test system: ACHN renal
UACC-62 melanoma = test system: UACC-62 melanoma
DU-145 prostate = test system: DU-145 prostate
IGROV1 ovarian = test system: IGROV1 ovarian
SR leukemia = test system: SR leukemia
HL-60(TB) leukemia = test system: HL-60(TB) leukemia
SK-MEL-5 melanoma = test system: SK-MEL-5 melanoma
NCI-H522 lung = test system: NCI-H522 lung
TK-10 renal = test system: TK-10 renal

SMILES: CCOc1ccc(N/C(=C(/C(Cl)=C(/Cl)N(CC)CC)[N+](=O)[O-])n2nnc3ccccc32)cc1
- TGI (OVCAR-5 ovarian): > 100 µM
- TGI (HCT-116 colon): 30.4 µM
- TGI (HS 578T breast): > 100 µM
- TGI (SK-OV-3 ovarian): > 100 µM
- TGI (BT-549 breast): 49.4 µM
- TGI (SNB-75 CNS): 51.2 µM
- TGI (SF-268 CNS): 36.2 µM
- TGI (COLO 205 colon): 37.2 µM
- TGI (K-562 leukemia): > 100 µM
- TGI (M14 melanoma): 79 µM
- TGI (MDA-MB-435): 33.9 µM
- TGI (SK-MEL-2 melanoma): 68.8 µM
- TGI (PC-3 prostate): 41.9 µM
- TGI (NCI-H226 lung): > 100 µM
- TGI (HCT-15 colon): 38.4 µM
- TGI (SNB-19 CNS): > 100 µM
- TGI (HOP-62 NSCLC): > 100 µM
- TGI (OVCAR-4 ovarian): 52.8 µM
- TGI (NCI-H460 lung): > 100 µM
- TGI (MOLT-4 leukemia): > 100 µM
- TGI (SF-295 CNS): > 100 µM
- TGI (SN12C renal): 49.6 µM
- TGI (RPMI-8226 leukemia): > 100 µM
- TGI (MCF7 breast): > 100 µM
- TGI (CAKI-1 renal): 26.9 µM
- TGI (KM12 colon): 26.3 µM
- TGI (A549 NSCLC): > 100 µM
- TGI (786-0 renal): 33.2 µM
- TGI (CCRF-CEM leukemia): > 100 µM
- TGI (MDA-N): 70.4 µM
- TGI (MDA-MB-231 breast): 25.2 µM
- TGI (U251 CNS): 28.1 µM
- TGI (T-47D breast): 28.9 µM
- TGI (SW-620 colon): 27.3 µM
- TGI (SF-539 CNS): 47.4 µM
- TGI (UO-31 renal): 45.2 µM
- TGI (NCI-H23 lung): 35 µM
- TGI (OVCAR-3 ovarian): 24.3 µM
- TGI (NCI/ADR-RES ovarian): 53.9 µM
- TGI (EKVX NSCLC): 69.6 µM
- TGI (UACC-257 melanoma): > 100 µM
- TGI (RXF 393 renal): 29.2 µM
- TGI (SK-MEL-28 melanoma): 41.4 µM
- TGI (HCC-2998 colon): > 100 µM
- TGI (A498 renal): 73.5 µM
- TGI (HT29 colon): 63.8 µM
- TGI (MALME-3M melanoma): 39 µM
- TGI (OVCAR-8 ovarian): 32.7 µM
- TGI (ACHN renal): 47.9 µM
- TGI (UACC-62 melanoma): 28.8 µM

SMILES: Cc1cc(S(=O)(=O)N/C(=C(\C#N)C(=O)c2ccc(Cl)cc2)[n+]2ccc(N(C)C)cc2)c([S-])cc1Cl
- TGI (OVCAR-5 ovarian): > 100 µM
- TGI (HCT-116 colon): 37.3 µM
- TGI (SK-OV-3 ovarian): 96.7 µM
- TGI (BT-549 breast): > 100 µM
- TGI (DU-145 prostate): > 100 µM
- TGI (SF-268 CNS): > 100 µM
- TGI (COLO 205 colon): > 100 µM
- TGI (K-562 leukemia): > 100 µM
- TGI (M14 melanoma): > 100 µM
- TGI (MDA-MB-435): > 100 µM
- TGI (SK-MEL-2 melanoma): 83.4 µM
- TGI (PC-3 prostate): > 100 µM
- TGI (NCI-H226 lung): > 100 µM
- TGI (HCT-15 colon): > 100 µM
- TGI (HOP-62 NSCLC): > 100 µM
- TGI (OVCAR-4 ovarian): > 100 µM
- TGI (IGROV1 ovarian): > 100 µM
- TGI (NCI-H460 lung): > 100 µM
- TGI (MOLT-4 leukemia): > 100 µM
- TGI (SR leukemia): > 100 µM
- TGI (SF-295 CNS): > 100 µM
- TGI (SN12C renal): > 100 µM
- TGI (RPMI-8226 leukemia): > 100 µM
- TGI (MCF7 breast): > 100 µM
- TGI (HL-60(TB) leukemia): > 100 µM
- TGI (CAKI-1 renal): > 100 µM
- TGI (KM12 colon): > 100 µM
- TGI (A549 NSCLC): > 100 µM
- TGI (786-0 renal): > 100 µM
- TGI (CCRF-CEM leukemia): > 100 µM
- TGI (MDA-N): > 100 µM
- TGI (MDA-MB-231 breast): > 100 µM
- TGI (U251 CNS): > 100 µM
- TGI (T-47D breast): > 100 µM
- TGI (SF-539 CNS): > 100 µM
- TGI (UO-31 renal): > 100 µM
- TGI (OVCAR-3 ovarian): > 100 µM
- TGI (NCI/ADR-RES ovarian): > 100 µM
- TGI (SK-MEL-5 melanoma): > 100 µM
- TGI (RXF 393 renal): > 100 µM
- TGI (SK-MEL-28 melanoma): > 100 µM
- TGI (NCI-H522 lung): > 100 µM
- TGI (HCC-2998 colon): > 100 µM
- TGI (A498 renal): 56.6 µM
- TGI (TK-10 renal): > 100 µM
- TGI (HT29 colon): 95.1 µM
- TGI (MALME-3M melanoma): 80 µM
- TGI (OVCAR-8 ovarian): > 100 µM
- TGI (ACHN renal): > 100 µM
- TGI (UACC-62 melanoma): > 100 µM
